Key:
Assay in all cases: KINOMEscan competition binding
Settings in all cases: compound 10.0 µM
ADCK4 (human) = ADCK4 (human) (UniProt Q96D53)
CAMK2D (human) = CAMK2D (human) (UniProt Q13557)
CDKL1 (human) = CDKL1 (human) (UniProt Q00532)
CHEK2 (human) = CHEK2 (human) (UniProt O96017)
CIT (human) = CIT (human) (UniProt O14578)
CRK2 (P.falciparum) = CRK2 (P.falciparum) (UniProt P61075)
CSNK1G2 (human) = CSNK1G2 (human) (UniProt P78368)
CSNK1G3 (human) = CSNK1G3 (human) (UniProt Q9Y6M4)
DCLK1 (human) = DCLK1 (human) (UniProt O15075)
DYRK1A (human) = DYRK1A (human) (UniProt Q13627)
EPHA1 (human) = EPHA1 (human) (UniProt P21709)
EPHB3 (human) = EPHB3 (human) (UniProt P54753)
HIPK3 (human) = HIPK3 (human) (UniProt Q9H422)
IKBKB (human) = IKBKB (human) (UniProt O14920)
[1] = biological target: JAK3 JH1 catalytic (human) (UniProt P52333)
KDR (human) = KDR (human) (UniProt P35968)
LIMK1 (human) = LIMK1 (human) (UniProt P53667)
MAP3K1 (human) = MAP3K1 (human) (UniProt Q13233)
MAP3K6 (human) = MAP3K6 (human) (UniProt O95382)
MAP4K1 (human) = MAP4K1 (human) (UniProt Q92918)
MAPK8 (human) = MAPK8 (human) (UniProt P45983)
MARK3 (human) = MARK3 (human) (UniProt P27448)
NTRK1 (human) = NTRK1 (human) (UniProt P04629)
NTRK2 (human) = NTRK2 (human) (UniProt Q16620)
NTRK3 (human) = NTRK3 (human) (UniProt Q16288)
PAK7 (human) = PAK7 (human) (UniProt Q9P286)
PLK1 (human) = PLK1 (human) (UniProt P53350)
PLK4 (human) = PLK4 (human) (UniProt O00444)
PRKCD (human) = PRKCD (human) (UniProt Q05655)
PRKCH (human) = PRKCH (human) (UniProt P24723)
PRKD1 (human) = PRKD1 (human) (UniProt Q15139)
PRKX (human) = PRKX (human) (UniProt P51817)
RIPK1 (human) = RIPK1 (human) (UniProt Q13546)
RPS6KA6 KD2 (human) = RPS6KA6 KD2 (human) (UniProt Q9UK32)
SLK (human) = SLK (human) (UniProt Q9H2G2)
STK4 (human) = STK4 (human) (UniProt Q13043)
SYK (human) = SYK (human) (UniProt P43405)
TLK2 (human) = TLK2 (human) (UniProt Q86UE8)
TNNI3K (human) = TNNI3K (human) (UniProt Q59H18)
YES1 (human) = YES1 (human) (UniProt P07947)

Chain of MAPK8 (human) (P45983 whole entry, looked up): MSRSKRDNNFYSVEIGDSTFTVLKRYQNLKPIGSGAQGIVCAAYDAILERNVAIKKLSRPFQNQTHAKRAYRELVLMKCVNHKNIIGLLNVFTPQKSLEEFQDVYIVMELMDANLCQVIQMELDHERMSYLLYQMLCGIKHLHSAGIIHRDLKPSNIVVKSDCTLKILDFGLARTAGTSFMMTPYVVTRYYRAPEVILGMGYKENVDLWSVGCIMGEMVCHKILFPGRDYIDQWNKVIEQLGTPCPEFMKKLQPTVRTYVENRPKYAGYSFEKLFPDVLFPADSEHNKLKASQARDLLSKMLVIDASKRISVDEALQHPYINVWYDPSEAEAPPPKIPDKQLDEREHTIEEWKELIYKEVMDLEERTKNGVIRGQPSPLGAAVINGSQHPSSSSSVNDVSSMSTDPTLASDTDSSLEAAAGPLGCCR
Chain of MAP3K6 (human) (O95382 whole entry, looked up): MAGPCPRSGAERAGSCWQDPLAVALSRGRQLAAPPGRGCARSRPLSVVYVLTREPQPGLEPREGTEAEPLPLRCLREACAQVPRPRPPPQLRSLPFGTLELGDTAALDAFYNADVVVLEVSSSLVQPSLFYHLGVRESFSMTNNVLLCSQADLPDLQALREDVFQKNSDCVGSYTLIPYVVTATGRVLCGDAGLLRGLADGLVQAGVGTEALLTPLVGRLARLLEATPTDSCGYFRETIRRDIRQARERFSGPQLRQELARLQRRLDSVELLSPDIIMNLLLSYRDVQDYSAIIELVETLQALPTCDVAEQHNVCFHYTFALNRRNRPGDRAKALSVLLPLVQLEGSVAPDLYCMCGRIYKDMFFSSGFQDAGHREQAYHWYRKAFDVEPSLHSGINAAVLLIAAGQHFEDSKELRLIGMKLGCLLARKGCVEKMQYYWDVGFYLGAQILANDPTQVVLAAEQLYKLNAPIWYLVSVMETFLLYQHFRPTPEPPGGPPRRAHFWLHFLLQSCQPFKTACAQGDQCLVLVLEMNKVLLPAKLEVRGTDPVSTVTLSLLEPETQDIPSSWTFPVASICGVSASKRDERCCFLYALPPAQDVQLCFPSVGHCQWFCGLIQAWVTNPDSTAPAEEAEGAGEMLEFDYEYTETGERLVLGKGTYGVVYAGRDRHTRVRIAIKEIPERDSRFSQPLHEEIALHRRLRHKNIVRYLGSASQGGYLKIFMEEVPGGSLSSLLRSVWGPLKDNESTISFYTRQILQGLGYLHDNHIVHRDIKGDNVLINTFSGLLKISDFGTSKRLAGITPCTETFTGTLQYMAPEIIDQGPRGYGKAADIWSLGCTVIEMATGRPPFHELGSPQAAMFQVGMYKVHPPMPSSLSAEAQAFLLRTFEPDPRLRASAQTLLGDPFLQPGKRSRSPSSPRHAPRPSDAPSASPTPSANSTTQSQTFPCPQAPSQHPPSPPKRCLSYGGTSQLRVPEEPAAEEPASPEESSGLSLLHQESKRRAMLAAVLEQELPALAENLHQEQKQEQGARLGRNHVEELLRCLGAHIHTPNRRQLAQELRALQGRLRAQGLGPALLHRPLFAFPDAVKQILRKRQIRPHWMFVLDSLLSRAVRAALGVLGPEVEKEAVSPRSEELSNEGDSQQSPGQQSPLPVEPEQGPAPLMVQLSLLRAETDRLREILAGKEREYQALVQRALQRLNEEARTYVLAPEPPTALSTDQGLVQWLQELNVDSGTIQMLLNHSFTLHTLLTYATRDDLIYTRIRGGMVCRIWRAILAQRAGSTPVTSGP
Chain of PLK4 (human) (O00444 whole entry, looked up): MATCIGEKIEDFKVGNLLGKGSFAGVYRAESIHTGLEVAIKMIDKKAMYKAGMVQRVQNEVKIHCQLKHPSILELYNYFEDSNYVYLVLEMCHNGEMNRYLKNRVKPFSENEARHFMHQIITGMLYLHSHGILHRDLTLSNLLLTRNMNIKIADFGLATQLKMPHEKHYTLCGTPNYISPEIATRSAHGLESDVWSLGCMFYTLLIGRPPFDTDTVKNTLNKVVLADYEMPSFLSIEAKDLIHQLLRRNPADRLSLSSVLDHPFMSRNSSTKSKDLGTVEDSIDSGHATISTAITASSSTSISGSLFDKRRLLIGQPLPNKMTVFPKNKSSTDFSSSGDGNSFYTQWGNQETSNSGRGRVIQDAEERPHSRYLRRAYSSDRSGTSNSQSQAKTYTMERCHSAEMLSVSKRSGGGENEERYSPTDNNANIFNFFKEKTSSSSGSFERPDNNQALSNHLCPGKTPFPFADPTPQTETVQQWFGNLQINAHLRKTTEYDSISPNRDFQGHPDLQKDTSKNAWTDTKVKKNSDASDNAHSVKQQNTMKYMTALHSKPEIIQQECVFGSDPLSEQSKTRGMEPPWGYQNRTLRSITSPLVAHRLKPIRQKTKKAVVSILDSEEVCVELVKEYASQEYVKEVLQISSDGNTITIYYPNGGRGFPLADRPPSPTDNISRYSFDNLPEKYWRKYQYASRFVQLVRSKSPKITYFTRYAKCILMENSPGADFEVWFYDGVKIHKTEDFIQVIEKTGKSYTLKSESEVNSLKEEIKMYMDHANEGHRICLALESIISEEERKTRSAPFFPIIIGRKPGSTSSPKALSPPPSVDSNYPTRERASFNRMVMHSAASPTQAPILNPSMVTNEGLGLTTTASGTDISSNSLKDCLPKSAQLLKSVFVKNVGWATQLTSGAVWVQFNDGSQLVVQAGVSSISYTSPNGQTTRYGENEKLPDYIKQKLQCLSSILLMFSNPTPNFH
Chain of RPS6KA6 KD2 (human) (Q9UK32 whole entry, looked up): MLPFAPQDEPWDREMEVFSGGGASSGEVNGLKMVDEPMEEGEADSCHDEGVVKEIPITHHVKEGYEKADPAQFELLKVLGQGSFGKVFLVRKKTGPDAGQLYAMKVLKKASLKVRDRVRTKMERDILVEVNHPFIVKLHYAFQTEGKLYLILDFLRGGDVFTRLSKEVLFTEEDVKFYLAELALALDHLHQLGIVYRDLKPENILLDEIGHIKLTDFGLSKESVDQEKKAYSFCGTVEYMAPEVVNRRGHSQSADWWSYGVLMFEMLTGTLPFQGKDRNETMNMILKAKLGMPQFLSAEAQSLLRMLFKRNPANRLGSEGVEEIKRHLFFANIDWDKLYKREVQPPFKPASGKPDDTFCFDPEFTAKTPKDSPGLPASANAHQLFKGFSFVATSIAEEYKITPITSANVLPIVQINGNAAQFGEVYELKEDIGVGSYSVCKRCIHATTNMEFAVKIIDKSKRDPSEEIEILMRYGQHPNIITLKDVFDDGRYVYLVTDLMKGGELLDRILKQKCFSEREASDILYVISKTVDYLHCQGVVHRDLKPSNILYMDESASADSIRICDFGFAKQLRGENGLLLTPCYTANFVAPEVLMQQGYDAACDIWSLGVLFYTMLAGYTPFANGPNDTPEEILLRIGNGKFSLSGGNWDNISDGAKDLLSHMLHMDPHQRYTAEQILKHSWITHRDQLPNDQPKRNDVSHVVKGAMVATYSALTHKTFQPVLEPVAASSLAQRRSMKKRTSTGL
Chain of MAP3K1 (human) (Q13233 whole entry, looked up): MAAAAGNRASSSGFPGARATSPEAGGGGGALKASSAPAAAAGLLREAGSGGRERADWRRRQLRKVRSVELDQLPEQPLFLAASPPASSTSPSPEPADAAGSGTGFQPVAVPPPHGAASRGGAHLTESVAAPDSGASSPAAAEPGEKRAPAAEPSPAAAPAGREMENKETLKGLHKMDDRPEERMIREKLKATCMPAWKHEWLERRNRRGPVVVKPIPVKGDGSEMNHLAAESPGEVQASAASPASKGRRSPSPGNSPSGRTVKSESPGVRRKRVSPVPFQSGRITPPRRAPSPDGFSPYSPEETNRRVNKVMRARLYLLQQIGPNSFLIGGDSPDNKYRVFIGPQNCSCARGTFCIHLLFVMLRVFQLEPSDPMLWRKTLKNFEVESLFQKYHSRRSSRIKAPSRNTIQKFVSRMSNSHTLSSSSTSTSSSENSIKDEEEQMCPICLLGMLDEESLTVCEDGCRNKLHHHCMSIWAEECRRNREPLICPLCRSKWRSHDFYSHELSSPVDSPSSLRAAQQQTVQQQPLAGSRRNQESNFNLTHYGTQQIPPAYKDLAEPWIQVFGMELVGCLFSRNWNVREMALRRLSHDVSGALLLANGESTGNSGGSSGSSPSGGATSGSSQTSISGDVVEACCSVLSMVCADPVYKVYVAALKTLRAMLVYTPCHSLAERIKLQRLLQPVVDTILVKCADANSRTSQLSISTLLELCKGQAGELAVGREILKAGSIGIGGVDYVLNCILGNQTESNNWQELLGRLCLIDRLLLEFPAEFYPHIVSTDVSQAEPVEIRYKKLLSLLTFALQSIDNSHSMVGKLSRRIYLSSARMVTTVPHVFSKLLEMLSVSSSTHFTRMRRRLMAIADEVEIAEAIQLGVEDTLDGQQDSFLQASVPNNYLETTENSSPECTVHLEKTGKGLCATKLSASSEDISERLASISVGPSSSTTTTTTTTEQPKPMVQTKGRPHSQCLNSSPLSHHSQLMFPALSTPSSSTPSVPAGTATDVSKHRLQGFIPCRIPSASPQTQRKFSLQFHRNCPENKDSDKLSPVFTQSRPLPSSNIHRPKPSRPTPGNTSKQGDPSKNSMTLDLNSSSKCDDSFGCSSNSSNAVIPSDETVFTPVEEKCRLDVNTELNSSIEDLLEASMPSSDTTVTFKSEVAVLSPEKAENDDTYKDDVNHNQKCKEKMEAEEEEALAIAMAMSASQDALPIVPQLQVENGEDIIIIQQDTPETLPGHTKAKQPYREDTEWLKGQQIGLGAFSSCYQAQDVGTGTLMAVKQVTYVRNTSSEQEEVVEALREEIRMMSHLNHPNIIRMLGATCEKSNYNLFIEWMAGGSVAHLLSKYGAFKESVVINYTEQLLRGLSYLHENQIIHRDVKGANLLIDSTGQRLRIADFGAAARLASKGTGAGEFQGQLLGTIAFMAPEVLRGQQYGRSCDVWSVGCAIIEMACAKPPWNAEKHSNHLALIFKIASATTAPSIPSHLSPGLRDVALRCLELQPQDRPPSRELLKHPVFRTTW

| SMILES | kinase still bound, per cent of control (ADCK4 (human)) [%] | kinase still bound, per cent of control (CAMK2D (human)) [%] | kinase still bound, per cent of control (CDKL1 (human)) [%] | kinase still bound, per cent of control (CHEK2 (human)) [%] | kinase still bound, per cent of control (CIT (human)) [%] | kinase still bound, per cent of control (CRK2 (P.falciparum)) [%] | kinase still bound, per cent of control (CSNK1G2 (human)) [%] | kinase still bound, per cent of control (CSNK1G3 (human)) [%] | kinase still bound, per cent of control (DCLK1 (human)) [%] | kinase still bound, per cent of control (DYRK1A (human)) [%] | kinase still bound, per cent of control (EPHA1 (human)) [%] | kinase still bound, per cent of control (EPHB3 (human)) [%] | kinase still bound, per cent of control (HIPK3 (human)) [%] | kinase still bound, per cent of control (IKBKB (human)) [%] | kinase still bound, per cent of control [1] [%] | kinase still bound, per cent of control (KDR (human)) [%] | kinase still bound, per cent of control (LIMK1 (human)) [%] | kinase still bound, per cent of control (MAP3K1 (human)) [%] | kinase still bound, per cent of control (MAP3K6 (human)) [%] | kinase still bound, per cent of control (MAP4K1 (human)) [%] | further results |
| --- | --- | --- | --- | --- | --- | --- | --- | --- | --- | --- | --- | --- | --- | --- | --- | --- | --- | --- | --- | --- | --- |
| COc1cc2ncnc(Nc3cccc(Cl)c3)c2cc1OC | 28 | 61 | 90 | 6.7 | 7.4 | 100 | 83 | 100 | 54 | 40 | 43 | 97 | 54 | 66 | 38 | 31 | 100 | 16 | 43 | 93 | kinase still bound, per cent of control (MAPK8 (human)): 38%; kinase still bound, per cent of control (MARK3 (human)): 100%; kinase still bound, per cent of control (NTRK1 (human)): 88%; kinase still bound, per cent of control (NTRK2 (human)): 80%; kinase still bound, per cent of control (NTRK3 (human)): 87%; kinase still bound, per cent of control (PAK7 (human)): 90%; kinase still bound, per cent of control (PLK1 (human)): 92%; kinase still bound, per cent of control (PLK4 (human)): 30%; kinase still bound, per cent of control (PRKCD (human)): 97%; kinase still bound, per cent of control (PRKCH (human)): 100%; kinase still bound, per cent of control (PRKD1 (human)): 89%; kinase still bound, per cent of control (PRKX (human)): 100%; kinase still bound, per cent of control (RIPK1 (human)): 100%; kinase still bound, per cent of control (RPS6KA6 KD2 (human)): 38%; kinase still bound, per cent of control (SLK (human)): 2%; kinase still bound, per cent of control (STK4 (human)): 100%; kinase still bound, per cent of control (SYK (human)): 54%; kinase still bound, per cent of control (TLK2 (human)): 100%; kinase still bound, per cent of control (TNNI3K (human)): 38%; kinase still bound, per cent of control (YES1 (human)): 38% |
| N#Cc1cc(-c2ccnc(Nc3ccc(-n4cnc(-c5cccnc5)n4)cc3)n2)cc(N2CCOCC2)c1 | 0.25 | 24 | 34 | 100 | 0.9 | 100 | 72 | 100 | 100 | 3.1 | 42 | 88 | 5.5 | 38 | 2.2 | 75 | 62 | 100 | 88 | 26 | kinase still bound, per cent of control (MAPK8 (human)): 0.05%; kinase still bound, per cent of control (MARK3 (human)): 100%; kinase still bound, per cent of control (NTRK1 (human)): 53%; kinase still bound, per cent of control (NTRK2 (human)): 100%; kinase still bound, per cent of control (NTRK3 (human)): 100%; kinase still bound, per cent of control (PAK7 (human)): 21%; kinase still bound, per cent of control (PLK1 (human)): 99%; kinase still bound, per cent of control (PLK4 (human)): 22%; kinase still bound, per cent of control (PRKCD (human)): 65%; kinase still bound, per cent of control (PRKCH (human)): 83%; kinase still bound, per cent of control (PRKD1 (human)): 66%; kinase still bound, per cent of control (PRKX (human)): 55%; kinase still bound, per cent of control (RIPK1 (human)): 7.8%; kinase still bound, per cent of control (RPS6KA6 KD2 (human)): 88%; kinase still bound, per cent of control (SLK (human)): 10%; kinase still bound, per cent of control (STK4 (human)): 89%; kinase still bound, per cent of control (SYK (human)): 25%; kinase still bound, per cent of control (TLK2 (human)): 65%; kinase still bound, per cent of control (TNNI3K (human)): 80%; kinase still bound, per cent of control (YES1 (human)): 79% |
